Test results as given in PubChem BioAssay (NCI).
Where “and” joins values, the source holds several entries; their conditions need not be identical. Identical values can stand only once.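 Tested at 5 concentrations; 48 h exposure; 96-well plates; endpoints linearly interpolated, else capped at highest concentration. The concentration for 50% growth inhibition is given as GI50. TGI denotes the concentration required for complete inhibition of growth.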 *1 amine or outer side, *2 acyl side, *3 side chain or, on linkers, in order; H or OH if unused. Where a SMILES comes first, the peptide text is derived from it. Bridges are numbered along the chain shown (N, C = ends). Roman numbers before positions name the chains, in order. X23 = CCCCCCCCCCCCCCC(=O)NC(CCCCN[*:2])C(=O)CN1CCCC1C(=O)[*:1]

Tests used:
Assay in all cases: growth of human tumour cells (NCI), 48 h
[1] = system: DLD-1 colon
[2] = system: HOP-18 NSCLC
[3] = system: 786-0 renal
[4] = system: SR leukemia
[5] = system: M19-MEL melanoma
[6] = system: T-47D breast
[7] = system: MDA-MB-435
[8] = system: PC-3 prostate
[9] = system: MDA-N
[10] = system: MDA-MB-231 breast
[11] = system: DU-145 prostate
[12] = system: BT-549 breast

O=C1NC2(NC(=O)C1=O)Nc1ccccc1S2
TGI [1]: > 67.5 µM
TGI [2]: > 100 µM
TGI [3]: 48.6 µM
TGI [4]: 61.9 µM

Nc1nccc2c1ncn2C1C=C(CO)C(O)C1O (configuration not stated)
GI50 [1]: 104 µM
TGI [1]: > 1000 µM
GI50 [5]: 7.78 µM
TGI [5]: > 1000 µM

Cc1ccc([S+](c2ccccc2)c2cc(C)ccc2C)cc1 (configuration not stated)
TGI [1]: 19.1 µM
TGI [2]: 26.4 µM
TGI [3]: > 100 µM
TGI [5]: > 100 µM
TGI [4]: > 100 µM

O=[P+](O)c1cccs1
TGI [1]: > 100 µM
TGI [2]: > 100 µM
TGI [5]: > 100 µM

Oc1ccc(NCc2cc(O)ccc2O)cc1
TGI [6]: 52.1 µM
TGI [7]: 32 µM
TGI [8]: 28.4 µM
TGI [9]: 11.1 µM
TGI [10]: 29.2 µM
TGI [11]: 32.9 µM
TGI [3]: 31.9 µM
TGI [12]: 25.8 µM

O=NN(CCCl)C(=O)Nc1ccc(Cl)c(Cl)c1
TGI [1]: > 100 µM
TGI [2]: > 26.2 µM
TGI [5]: > 100 µM

COC[C@@H]1Cc2cc(OC)c3c(c2[C@H](c2ccc(OC)c(OC)c2)[C@H]1COC)OCO3
TGI [1]: > 100 µM
TGI [2]: > 100 µM
TGI [5]: > 100 µM
TGI [4]: > 100 µM

CCOC(=O)c1c(SC)nc(-c2ccc(Cl)cc2)sc1=N
TGI [6]: > 100 µM
TGI [7]: > 100 µM
TGI [8]: 61.9 µM
TGI [10]: > 100 µM
TGI [11]: > 100 µM
TGI [3]: > 100 µM
TGI [12]: > 100 µM

COc1cc(CCC(=O)O)c2cc3ccccc3cc2c1O
TGI [6]: 36.3 µM
TGI [7]: 34.4 µM
TGI [8]: 47.6 µM
TGI [9]: 32.5 µM
TGI [10]: 41.4 µM
TGI [3]: 30.4 µM
TGI [12]: 30.9 µM
TGI [4]: 33.1 µM

O=C1CC(NCCCNC2CC(=O)c3c(Br)sc(Br)c32)c2c(Br)sc(Br)c21 (configuration not stated)
TGI [6]: 5.28 µM
TGI [7]: 4.28 µM
TGI [8]: 3.9 µM
TGI [9]: 5.54 µM
TGI [10]: 4.3 µM
TGI [11]: 3.64 µM
TGI [3]: 2.63 µM
TGI [12]: 4.23 µM
TGI [4]: > 100 µM

CC(=O)C1=C(C)N(c2ccc(C)cc2)C2(O)C=CC(=O)C3=C(O)c4ccccc4C(=O)C312 (configuration not stated)
TGI [6]: > 100 µM
TGI [8]: 41.5 µM
TGI [10]: 70.2 µM
TGI [11]: > 100 µM
TGI [3]: > 100 µM
TGI [12]: 38.9 µM
TGI [4]: > 100 µM

Nc1cccc(/C=C/CN2CCN(CCOC(c3ccccc3)c3ccccc3)CC2)c1
TGI [6]: 26 µM
TGI [7]: 28.1 µM
TGI [8]: 30 µM
TGI [10]: 30.3 µM
TGI [11]: 26.4 µM
TGI [3]: 30.5 µM
TGI [12]: 29.9 µM
TGI [4]: 17.4 µM

CC1C(O)[C@@]2(OC[C@@]34C(=O)CC5(O)[C@H](CCC6Cc7nc8c(nc7C[C@]65C)CC5CC[C@@H]6C7=C[C@H]9O[C@@]%10(O[C@@](C)(CO)C[C@@H]%10O)C(C)[C@@]9(O)[C@]7(C)[C@@H](O)CC6[C@]5(C)C8)C3=CC[C@H]4C2C)OC1(C)C (some centres not stated)
TGI [1]: 0.652 µM
TGI [2]: 3.43 µM
TGI [5]: > 3.55 µM

Cc1ccc(NC(=O)CC(=O)n2nc(-c3ccccc3)c(N=Nc3ccccc3C(=O)O)c2-c2ccccc2)cc1
TGI [1]: > 100 µM
TGI [5]: > 100 µM
TGI [4]: > 100 µM

COc1cccc2c1C(=O)c1c(O)c3c(c(O)c1C2=O)C[C@@](O)(C(C)=O)C[C@@H]3OC1CC(N(C)C)C(O)C(C)O1 (some centres not stated)
TGI [1]: 3.34 µM and 0.705 µM
TGI [6]: 0.00329 µM
TGI [7]: 0.00234 µM
TGI [8]: 0.00144 µM
TGI [2]: 0.585 µM and 2.17 µM
TGI [9]: 0.00154 µM
TGI [10]: 0.005 µM
TGI [11]: 0.00739 µM
TGI [3]: 1.36 µM
TGI [12]: 0.00562 µM
TGI [5]: 0.292 µM and 0.039 µM
GI50 [4]: 0.00237 µM

CN(CCNC(=O)c1cn(C)c2c1ccc1cc(Cl)ccc12)CCNC(=O)c1cn(C)c2c1ccc1cc(Cl)ccc12
TGI [7]: 3.47 µM
TGI [8]: 11.5 µM
TGI [9]: 3.41 µM
TGI [10]: 71.8 µM
TGI [11]: 3.25 µM
TGI [12]: 21.9 µM
TGI [4]: 38 µM

C[As](C)SCC(NC(=O)CCC(N)C(=O)O)C(=O)NCC(=O)O.Cl.c1ccncc1 (configuration not stated)
TGI [6]: 1.19 µM
TGI [7]: 1.07 µM
TGI [8]: 4 µM
TGI [9]: 1.51 µM
TGI [10]: 0.912 µM
TGI [11]: 0.556 µM
TGI [3]: 1.3 µM
TGI [12]: 1.57 µM
TGI [4]: 0.076 µM

OCCSCc1cc(Cl)cc(Cl)c1O
TGI [6]: > 100 µM
TGI [7]: > 100 µM
TGI [8]: > 100 µM
TGI [9]: > 100 µM
TGI [10]: > 100 µM
TGI [11]: > 100 µM
TGI [3]: > 100 µM
TGI [12]: > 100 µM

O=C1CC(NC2CC(=O)c3c(Br)sc(Br)c32)c2c(Br)sc(Br)c21 (configuration not stated)
TGI [6]: 8.25 µM
TGI [7]: 11.2 µM
TGI [8]: 7.52 µM
TGI [9]: 5.82 µM
TGI [10]: 10.3 µM
TGI [11]: 16.5 µM
TGI [3]: 2.9 µM
TGI [12]: 38.9 µM

CCCCCCCCCCCCCCC(=O)NC(CCCCNC(=O)C1CCCN1C(=O)C(CCCCN)NC(=O)C(CCCCN)NC(=O)C(CCCCN)NC(=O)C(CCCNC(=N)N)NC(=O)C(CCCCN)NC(=O)C(N)C(C)C)C(=O)CN1CCCC1C(=O)NCC(=O)NC(Cc1ccccc1)C(=O)N1CCCC1C(=O)NC(CO)C(=O)NC(Cc1ccc(O)cc1)C(=O)NC(CCCCN)C(=O)NC(CC(C)C)C(=O)NC(CCCNC(=N)N)C(=O)N1CCCC1C(=O)NCC(N)=O (configuration not stated) (I: GFPSYKLRPG-NH2 / II: H-VKRKKKP; linker I:N-II:C via X23; configuration not given here)
GI50 [6]: 3.17 µM
TGI [6]: 13.9 µM
GI50 [7]: 3.15 µM
TGI [7]: 41.6 µM
GI50 [10]: 20.9 µM
TGI [10]: 43.7 µM
GI50 [11]: 24.6 µM
TGI [11]: 64.2 µM
GI50 [12]: 23.4 µM
TGI [12]: 54.7 µM

CC(C)(C)OC(=O)N1CCCC1C(=O)NCCNc1ccc(NCCNC(=O)C2CCCN2C(=O)OC(C)(C)C)c2c1C(=O)c1ccccc1C2=O (configuration not stated)
TGI [7]: 39.8 µM
TGI [8]: 26.4 µM
TGI [10]: 25.9 µM
TGI [3]: 28 µM
TGI [12]: 25.7 µM
TGI [4]: > 100 µM

O=C1CSc2sc(=S)sc2S1
TGI [1]: > 100 µM
TGI [2]: > 100 µM
TGI [5]: > 100 µM

COC1=CCC2=C(CCN(C(=O)C3CC3)C2Cc2ccc(OC)c(O)c2)C1 (configuration not stated)
TGI [6]: 70.9 µM
TGI [7]: 68.8 µM
TGI [8]: > 100 µM
TGI [10]: > 100 µM
TGI [11]: > 100 µM
TGI [3]: > 100 µM
TGI [4]: 82.6 µM

O=C(Nc1sccc1S(=O)(=O)c1ccc(Cl)cc1)c1ccc(Cl)cc1Cl
TGI [6]: > 100 µM
TGI [7]: > 100 µM
TGI [8]: > 100 µM
TGI [10]: > 100 µM
TGI [11]: > 100 µM
TGI [3]: > 100 µM
TGI [12]: > 100 µM
TGI [4]: > 100 µM

CCSC1=C(C#N)C2(CCCCC2)C2=C(CC(C)(C)CC2=O)N1
TGI [6]: > 100 µM
TGI [7]: > 100 µM
TGI [8]: > 100 µM
TGI [9]: > 100 µM
TGI [10]: > 100 µM
TGI [11]: 60.8 µM
TGI [3]: > 100 µM
TGI [12]: 60.1 µM
TGI [4]: > 100 µM

Cc1cc(O)c2cc3c(O)c(O)ccc3cc2c1
TGI [6]: 6.28 µM
TGI [7]: 22.8 µM
TGI [8]: 19.3 µM
TGI [9]: 8.86 µM
TGI [10]: 3.21 µM
TGI [11]: > 50.8 µM
TGI [3]: > 47.8 µM
TGI [12]: > 44.3 µM
TGI [4]: 3.25 µM

O=CNNC(=O)CSc1nc2ccc(I)cc2c(=O)n1Cc1ccccc1
TGI [6]: > 100 µM
TGI [7]: > 100 µM
TGI [8]: > 100 µM
TGI [9]: > 100 µM
TGI [10]: 81.8 µM
TGI [11]: > 100 µM
TGI [3]: > 100 µM
TGI [12]: 99 µM
TGI [4]: > 100 µM

O=S(=O)(c1ccccc1)[C@@H]1[C@H]2C=C[C@](CS)(O2)[C@H]1S(=O)(=O)c1ccccc1
TGI [6]: > 100 µM
TGI [7]: > 100 µM
TGI [8]: > 100 µM
TGI [9]: > 100 µM
TGI [10]: > 100 µM
TGI [11]: > 100 µM
TGI [3]: 87.2 µM
TGI [12]: > 100 µM
TGI [4]: > 100 µM

NS(=O)(=O)c1ccc(N=Nc2ccc(O)c(O)c2)cc1
TGI [6]: > 100 µM
TGI [7]: 32.2 µM
TGI [8]: > 100 µM
TGI [9]: > 100 µM
TGI [10]: 38.8 µM
TGI [11]: > 100 µM
TGI [3]: > 100 µM
TGI [12]: 14.4 µM
TGI [4]: 48 µM

CC(=O)OCC1OC(N2C(=O)CC(N)=Nc3ccccc32)C(OC(C)=O)C(OC(C)=O)C1OC(C)=O (configuration not stated)
TGI [6]: 82.2 µM
TGI [7]: > 100 µM
TGI [8]: > 100 µM
TGI [9]: > 100 µM
TGI [10]: > 100 µM
TGI [11]: > 100 µM
TGI [3]: > 100 µM
TGI [12]: > 100 µM
TGI [4]: > 100 µM

Clc1ccc(/C=C/c2nc(-c3ccc(Cl)cc3)cn3c2nc2ccccc23)cc1
TGI [6]: > 100 µM
TGI [7]: > 100 µM
TGI [8]: > 100 µM
TGI [9]: > 100 µM
TGI [10]: > 100 µM
TGI [11]: > 100 µM
TGI [3]: > 100 µM
TGI [12]: > 100 µM
TGI [4]: > 100 µM
